Values of other authors in US20110110985A1, “FUNCTIONALIZED NANOMATERIALS FOR CHELATION THERAPIES AND SORBENT DIALYSIS OF TOXINS” (priority 2009, published 2011).

What was measured:
[1] = given orally to rats
[2] = day of chelation vs one and two days prior to treatment
[3] = given in the first 24 hours

For `O=C(O)[C@@H](S)[C@@H](S)C(=O)O` [DMSA, meso-2,3-dimercaptosuccinic acid], the “change of Ca and Zn in carcass, Fe and Cu in liver, kidney, or brain” value [1] is given as “did not significantly change”.
For `O=C(O)CN(CCN(CC(=O)O)CC(=O)O)CC(=O)O` [EDTA, ethylenediamine-tetraacetate], the “increase of urinary excretion of Ca” value [2] is given as 2 fold and the “increase of urinary excretion of Zn” value [2] is given as 18 fold.
For `O=C(O)CN(CCN(CC(=O)O)CC(=O)O)CCN(CC(=O)O)CC(=O)O` [Ca-DTPA, diethylenetriaminepentaacetic acid], the “effectiveness relative to Zn-DTPA” value [3] is listed as 10 fold.
